The record followed here is US12258308B2, “Benzene derivative” (ONO PHARMACEUTICAL CO., LTD., priority 2018, dated 2025).

The subject of one assay is rat Schwann cells. Description: In vitro test using Schwann cells (Schwann cell differentiation promotion, MAG immunostaining). The format is cell-based. The following applies: Rattus norvegicus, 72 h, 3 days, MAG-positive area/cell nuclei; for activity at 0.3 µM: compound 0.3 μmol/L, read-out: Schwann cell differentiation promotion rate (% of vehicle) 0.3 μmol/L; for activity at 3 µM: compound 3 μmol/L, read-out: Schwann cell differentiation promotion rate (% of vehicle) 3 μmol/L. How it is done: Biological Experiment Example 1: In Vitro Test Using Schwann Cells
• (1) Preparation of rat Schwann cells
A dorsal root ganglion (abbreviated as “DRG”, hereinafter) was excised from a newborn rat aged 0 to 2 days in a clean bench and was collected in DMEM. After the collection, the tube was centrifuged at 400 g, at room temperature for 3 minutes, then a supernatant was discarded, and a 0.25% collagenase solution was added. There resultant solution was incubated at 37° C. for 30 minutes to disperse and separate the excised DRG, and was then centrifuged at room temperature at 400 g for 3 minutes, then a supernatant was discarded, and then 0.25% Trypsin/EDTA and DNaseI were added. After the incubation at 37° C. for 30 minutes, trypsin was inactivated with DMEM supplemented with 10% FBS (10% FBS-DMEM), and centrifugation was carried out at room temperature at 400 g for 3 minutes. A supernatant was discarded, then 10% FBS-DMEM was added to the residue to prepare a cell suspension, and then the cell suspension was allowed to pass through a filter (diameter: 70 μm). The number of cells in the cell suspension which passed through the filter was counted to prepare a solution having a concentration of 2.0×10^5 cells/mL, and the suspension was seeded in a poly-D-lysine-coated 96-well black-clear plate in an amount of 100 μL/well and was then statically cultured in a CO2 incubator under the conditions including 5% of CO2, 95% of air and 37° C.
The culture medium in the cell culture plate was removed by suction using an aspirator, and then DMEM supplemented with 1% dialyzed FBS and 100 μmol/L dibutyryl cyclic AMP was added. Subsequently, a solution of a compound of the present invention dissolved in DMSO was added, and the resultant solution was statically cultured in a C02 incubator under the conditions including 5% of C02, 95% of air and a temperature of 37° C. The final concentration of the compound of the present invention in each well in the cell culture plate was adjusted to 0.1, 0.3, 1 or 3 μmol/L.
Three days after the treatment with the compound, formaldehyde was added to each well in the cell culture plate, and the cell culture plate was allowed to stand at room temperature for 30 minutes or longer. A supernatant was discarded, and then a 0.3% tritonX-100 solution was added to each well, and then the cell culture plate was allowed to stand at room temperature for 20 minutes or longer. A supernatant was discarded, then a 5-μg/mL anti-myeline-associated glycoprotein antibody (anti-MAG antibody) solution was added to each well, and then the cell culture plate was allowed to stand at room temperature for 60 minutes or longer or at 4° C. (acceptable range: 1 to 9° C.) overnight. Each well was washed with a 0.1% tritonX-100 solution three times, then a 10-μg/mL Alexa fluor 488 anti-mouse IgG solution was added to each well, and then the cell culture plate was allowed to stand at room temperature for 60 or longer or at 4° C. overnight. Each well was washed with a 0.1% tritonX-100 solution four times, and then a 1-μg/mL Hoechst33342 solution was added to each well to stain nuclei.
The Mag-positive area and the number of cell nuclei in a fluorescent image were calculated. With respect to each of the MAG-positive area and the number of cell nuclei, the sum total of values obtained in 5 viewing fields/well was determined. The values were employed as a value for the MAG-positive area and a value for the number of cell nuclei, respectively, in each well. Subsequently, a value determined by dividing the value for the MAG-positive area in each well by the value for the number of cell nuclei in the well (i.e., MAG/cell nuclei numerical value) was calculated. The Schwann cell differentiation promotion rate was determined for each of the vehicles in accordance with the following formula. […]

In assay [1] the test system is streptozotocin-induced rat model. The experiment in a line: Test using streptozotocin-induced rat model (nociceptive threshold, von Frey). The format is in vivo. The conditions noted are these: for Nociceptive threshold improve rate (%) 7 days after withdrawal of administration: 0.3 mg/kg oral once per day day 14 to 28, 35 days after STZ; for Nociceptive threshold improve rate (%) After initial single administration: 14 days after STZ, 2 hours after administration; for Nociceptive threshold improve rate (%) 7 days after start of administration: 21 days after STZ; for Nociceptive threshold improve rate (%) 14 days after start of administration: 28 days after STZ. How it is done:
Biological Experiment Example 2: Test Using Streptozotocin-Induced Rat Model
In order to evaluate the therapeutic effect of each of the compounds of the present invention on diabetic peripheral neuropathy, an in vivo test using a streptozotocin model was carried out.
A model was produced by intravenously administering streptozotocin (abbreviated as “STZ”, hereinafter) one time at a dose amount of 55 mg/kg to a rat.
(2) Measurement of Nociceptive Threshold
The rat was placed in a clear acryl measurement cage once or more times for 10 minutes or longer until the administration of STZ started. In this manner, the rat was acclimated to the measurement environment. Eight von Frey filaments respectively having weights of 0.4, 0.6, 1, 2, 4, 6, 8 and 15 g were applied vertically to a hindpaw of the rat from under a metallic mesh floor. When a quick escape or flinching reaction was observed, it was determined that a positive reaction occurred (i.e., “response was observed”). Each of the compounds of the present invention was administered orally once per day in a period from day 14 to day 28 after the administration of STZ, wherein the dose amount of each of the compounds was 0.03, 0.3 or 3 mg/kg. A nociceptive threshold was measured 2 hours after the administration of each of the compounds of the present invention at the timings of before the administration of STZ, 14 days after the administration of STZ (i.e., the day of the start of the administration of each of the compounds of the present invention), 21 days after the administration of STZ (i.e., 7 days after the start of the administration of the compound), 28 days after the administration of STZ (i.e., 14 days after the start of the administration of the compound), and 35 days after the administration of STZ (i.e., 7 days after the withdrawal of the administration of the compound).
The nociceptive threshold was measured by the up-down method in accordance with the method of Chaplan et. al. (J Neurosci Methods. 1994; 53:55-63). The rate of improvement in the nociceptive threshold was calculated in accordance with the following formula. Nociceptive threshold improve rate (%)=(nociceptive threshold on each of the number of days elapsed after administration of STZ−B)/(A−B)×100 [Math 2] • A: Nociceptive threshold before administration of STZ • B: Nociceptive threshold on 14 days elapsed after administration of STZ (Results)
The results of the nociceptive thresholds and the nociceptive threshold improve rates obtained when each of the compounds of the present invention was administered at a dose amount of 0.3 mg/kg are shown in the FIGURE and Table 2, respectively. With respect to all of the compounds, a potent pain relief effect against peripheral neuropathy was observed. With respect to the compound of Example 11, for example, the improvement in the nociceptive threshold was observed from 7 days after the start of the administration of the compound, and this effect lasted even 7 days after the withdrawal of the administration.

`O=C(O)CCc1ccccc1OCC[C@@H](O)CCc1cccc(C(O)Cc2ccccc2)c1` (stereo in doubt) [Example 36, 3-[2-[(3S)-3-Hydroxy-5-[3-[(1R)-1-hydroxy-2-phenylethyl]phenyl]pentoxy]phenyl]propanoic acid]: in the assay on rat Schwann cells, the activity at 0.3 µM worked out at 126% and the activity at 3 µM was 732%. Further, the “Nociceptive threshold improve rate (%) 7 days after withdrawal of administration” value in assay [1] amounted to 57.4 ± 10.74%. Also, in assay [1] (0.3 mg/kg oral once per day), the “Nociceptive threshold improve rate (%) After initial single administration” value is given as 3.6 ± 7.07%, the “Nociceptive threshold improve rate (%) 7 days after start of administration” value is listed as 57.1 ± 13.78% and the “Nociceptive threshold improve rate (%) 14 days after start of administration” value stood at 64.2 ± 13.02%.

`O=C(O)CCc1ccccc1OCC[C@@H](O)CCc1cccc(C(O)Cc2ccccc2)c1` (stereo in doubt) [Example 37, 3-[2-[(3S)-3-Hydroxy-5-[3-[(1S)-1-hydroxy-2-phenylethyl]phenyl]pentoxy]phenyl]propanoic acid]: in the assay on rat Schwann cells, the activity at 0.3 µM turned out to be 171% and the activity at 3 µM was 915%. Moreover, the “Nociceptive threshold improve rate (%) 7 days after withdrawal of administration” value in assay [1] was determined as 58.7 ± 19.84%. Also, in assay [1] (0.3 mg/kg oral once per day), the “Nociceptive threshold improve rate (%) After initial single administration” value is −11.9 ± 10.78%, the “Nociceptive threshold improve rate (%) 7 days after start of administration” value is on record as 61.3 ± 16.58% and the “Nociceptive threshold improve rate (%) 14 days after start of administration” value is 78.9 ± 9.85%.

For the molecule `O=C(O)CCc1ccccc1OCC[C@@H](O)/C=C/c1cccc(NS(=O)(=O)c2ccccc2)c1` [Example 11, 3-[2-[(E,3R)-5-[3-(Benzenesulfonamido)phenyl]-3-hydroxypent-4-enoxy]phenyl]propanoic acid], in the assay with rat Schwann cells, the activity at 0.3 µM came to 114% and the activity at 3 µM stood at 248%. Also, in assay [1], the “Nociceptive threshold improve rate (%) 7 days after withdrawal of administration” value is 41.1 ± 13.71%. Also, in assay [1] (0.3 mg/kg oral once per day, STZ rat), the “Pain relief effect against peripheral neuropathy” value was “a sustained pain relief effect was confirmed”. Also, in assay [1] (0.3 mg/kg oral once per day), the “Nociceptive threshold improve rate (%) After initial single administration” value is on record as −14.6 ± 6.37%, the “Nociceptive threshold improve rate (%) 7 days after start of administration” value was determined as 26.6 ± 9.30% and the “Nociceptive threshold improve rate (%) 14 days after start of administration” value stood at 27.1 ± 8.39%.

For the molecule `O=C(O)CCc1ccccc1OCC[C@@H](O)/C=C/c1cccc(NC(=O)c2ccccc2)c1` [Example 12(1), 3-[2-[(E,3R)-5-(3-Benzamidophenyl)-3-hydroxypent-4-enoxy]phenyl]propanoic acid], in the assay on rat Schwann cells, the activity at 0.3 µM was 120% and the activity at 3 µM stood at 274%. The “Nociceptive threshold improve rate (%) 7 days after withdrawal of administration” value in assay [1] was 9.1 ± 13.37%. Besides, in assay [1] (0.3 mg/kg oral once per day), the “Nociceptive threshold improve rate (%) After initial single administration” value is 6.2 ± 5.72%, the “Nociceptive threshold improve rate (%) 7 days after start of administration” value was 17.4 ± 17.19% and the “Nociceptive threshold improve rate (%) 14 days after start of administration” value amounted to 44.6 ± 11.54%.

Regarding `O=C(O)CCc1ccccc1OCC[C@@H](O)/C=C/c1cccc2c1CCN2S(=O)(=O)c1ccccc1` [Example 13(15), 3-[2-[(E,3R)-5-[1-(Benzenesulfonyl)-2,3-dihydroindol-4-yl]-3-hydroxypent-4-enoxy]phenyl]propanoic Acid], in the assay on rat Schwann cells, the activity at 0.3 µM was 219% and the activity at 3 µM was determined as 326%. In addition, the “Nociceptive threshold improve rate (%) 7 days after withdrawal of administration” value in assay [1] is 7.1 ± 9.51%. Also, in assay [1] (0.3 mg/kg oral once per day), the “Nociceptive threshold improve rate (%) After initial single administration” value is recorded as −15.4 ± 14.26%, the “Nociceptive threshold improve rate (%) 7 days after start of administration” value is 15.9 ± 7.17% and the “Nociceptive threshold improve rate (%) 14 days after start of administration” value was 8.5 ± 11.50%.

Regarding `O=C(O)CCc1ccccc1OCC[C@@H](O)/C=C/c1ccc2c(c1)CN(S(=O)(=O)c1ccccc1)C2` [Example 13(16), 3-[2-[(E,3R)-5-[2-(Benzenesulfonyl)-1,3-dihydroisoindol-5-yl]-3-hydroxypent-4-enoxy]phenyl]Propanoic Acid], in the assay on rat Schwann cells, the activity at 0.3 µM came to 170% and the activity at 3 µM came to 377%. Besides, in assay [1], the “Nociceptive threshold improve rate (%) 7 days after withdrawal of administration” value is −7.8 ± 14.90%. For the same molecule, in assay [1] (0.3 mg/kg oral once per day), the “Nociceptive threshold improve rate (%) After initial single administration” value was −6.0 ± 3.87%, the “Nociceptive threshold improve rate (%) 7 days after start of administration” value was 25.8 ± 5.28% and the “Nociceptive threshold improve rate (%) 14 days after start of administration” value came out at 29.6 ± 8.19%.

For `O=C(O)CCc1ccccc1OCC[C@@H](O)/C=C/c1cccc(NS(=O)(=O)C2CCCC2)c1` [Example 74(13), 3-[2-[(E,3R)-5-[3-(Cyclopentylsulfonylamino)phenyl]-3-hydroxypent-4-enoxy]phenyl]propanoic acid], in the assay with rat Schwann cells, the activity at 0.3 µM amounted to 79.9% and the activity at 3 µM came out at 184%. In addition, in assay [1], the “Nociceptive threshold improve rate (%) 7 days after withdrawal of administration” value is 76.3 ± 13.41%. For the same molecule, in assay [1] (0.3 mg/kg oral once per day), the “Nociceptive threshold improve rate (%) After initial single administration” value is 2.6 ± 1.69%, the “Nociceptive threshold improve rate (%) 7 days after start of administration” value was found to be 28.3 ± 7.44% and the “Nociceptive threshold improve rate (%) 14 days after start of administration” value turned out to be 57.3 ± 17.63%.

Turning to `O=C(O)CCc1ccccc1OCCOCCc1cccc(NS(=O)(=O)c2ccccc2)c1` [Example 149, 3-[2-[2-[2-[3-(Benzenesulfonamido)phenyl]ethoxy]ethoxy]phenyl]propanoic Acid], in the assay with rat Schwann cells, the activity at 0.3 µM is 160% and the activity at 3 µM amounted to 645%.

As to `O=C(O)CCc1ccccc1OCCCCCC1CCC(NS(=O)(=O)c2ccccc2)CC1` (centres unmarked) [Example 166, 3-[2-[5-[4-(Benzenesulfonamido)cyclohexyl]pentoxy]phenyl]propanoic acid], in the assay with rat Schwann cells, the activity at 0.3 µM is 104% and the activity at 3 µM was 465%.
